In ChEMBL document CHEMBL1140044, “Structure-activity relationship study on anti-HIV 6-desfluoroquinolones” (J Med Chem, 2008):
Converted amounts (≈) assume the structure as drawn. The source made the active and inactive calls. The calls are words filed in the database; no cut-off is given here.

Columns and labels:
[1] = system: Human immunodeficiency virus 1; test: Antiviral activity against HIV1 3B in MT4 cells assessed as inhibition of virus-induced cytopathogenicity by MTT assay; assay type: functional, organism-based; conditions: Human immunodeficiency virus 1, 3B
[2] = system: Human immunodeficiency virus 2; test: Antiviral activity against HIV2 ROD in MT4 cells assessed as inhibition of virus-induced cytopathogenicity by MTT assay; assay type: functional, organism-based; conditions: Human immunodeficiency virus 2, ROD
[3] = Cytotoxicity against mock-infected human MT4 cells after 5 days by MTT assay; assay type: cell-based
[4] = Selectivity index, ratio of CC50 for human CEM cells to EC50 for HIV2 ROD; assay type: toxicity, cell-based, CCRF-CEM; conditions: read-out: Ratio CC50/EC50
[5] = Selectivity index, ratio of CC50 for human MT4 cells to EC50 for HIV1 3B; assay type: toxicity, cell-based; conditions: read-out: Ratio CC50/EC50
[6] = Selectivity index, ratio of CC50 for human PBMC cells to EC50 for HIV1 3B; assay type: toxicity, cell-based; conditions: read-out: Ratio CC50/EC50
[7] = system: Human immunodeficiency virus 1; test: Antiviral activity against HIV1 3B in PBMC assessed as inhibition of p24 production after 7 days by ELISA; assay type: functional, organism-based; conditions: Human immunodeficiency virus 1, 3B, 168 h
[8] = system: Human immunodeficiency virus 2; test: Antiviral activity against HIV2 ROD in CEM cells assessed as inhibition of virus-induced syncytium formation after 4 days by microscopy; assay type: functional, organism-based; conditions: Human immunodeficiency virus 2, ROD, CCRF-CEM, 96 h
[9] = Selectivity index, ratio of CC50 for human MT4 cells to EC50 for HIV2 ROD; assay type: toxicity, cell-based; conditions: read-out: Ratio CC50/EC50
[10] = Selectivity index, ratio of CC50 for human CEM cells to EC50 for HIV1 3B; assay type: toxicity, cell-based, CCRF-CEM; conditions: read-out: Ratio CC50/EC50
[11] = system: Human immunodeficiency virus 1; test: Antiviral activity against HIV1 3B in CEM cells assessed as inhibition of virus-induced syncytium formation after 4 days by microscopy; assay type: functional, organism-based; conditions: Human immunodeficiency virus 1, 3B, CCRF-CEM, 96 h
[12] = Cytotoxicity against mock-infected human PBMC cells by trypan blue exclusion assay; assay type: cell-based
[13] = Cytotoxicity against mock-infected human CEM cells by Coulter counter; assay type: cell-based; conditions: mock-infected CEM (CCRF-CEM) cells
[14] = system: Human immunodeficiency virus 1; test: Antiviral activity against HIV1 3B in MT4 cells assessed as virus p24 antigen production administered at 16 hrs post infection by ELISA; assay type: functional, organism-based
[15] = system: Human immunodeficiency virus 1; test: Antiviral activity against HIV1 3B in MT4 cells assessed as virus p24 antigen production administered at 5 hrs post infection by ELISA; assay type: functional, organism-based
[16] = system: Human immunodeficiency virus 1; test: Antiviral activity against HIV1 3B in MT4 cells assessed as virus p24 antigen production administered at 10 hrs post infection by ELISA; assay type: functional, organism-based
[17] = biological target: T1, Protein Tat (Human immunodeficiency virus type 1 group M subtype B (isolate HXB2)(HIV-1)) (UniProt P04608); test: Inhibition of HIV1 Tat-mediated LTR promoter transactivation in Tat/GFP plasmid expressed in Jurkat cells assessed as GFP gene expression by FACS analysis; assay type: cell-based; conditions: Human immunodeficiency virus 1
T1 sequence (whole entry): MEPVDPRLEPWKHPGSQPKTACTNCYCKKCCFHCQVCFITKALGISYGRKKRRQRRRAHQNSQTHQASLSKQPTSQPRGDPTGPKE

[18] = system: Human immunodeficiency virus 1; test: Inhibition of HIV1 3B production in chronically infected HUT78 cells assessed as virus p24 antigen production after 44 hrs by ELISA; assay type: functional, organism-based

Row | Compound | EC50 [1] | EC50 [2] | CC50 at 120 h [3] | selectivity ratio [4] | selectivity ratio [5] | selectivity ratio [6] | EC50 [7] | EC50 [8] | selectivity ratio [9] | selectivity ratio [10] | EC50 [11] | CC50 [12] | CC50 [13] | Activity [14] | Activity [15] | Activity [16] | Activity [17] | Activity [18]
1 | Cn1cc(C(=O)O)c(=O)c2cc(N)c(N3CCNCC3)cc21 | > 94 µg/mL | > 94 µg/mL | ≥ 94 µg/mL |  |  |  |  |  |  |  |  |  |  |  |  |  |  | 
2 | Nc1cc2c(=O)c(C(=O)O)c[nH]c2cc1N1CCN(c2nc3ccccc3o2)CC1 | 0.23 µg/mL (≈ 0.567 µM) | 0.28 µg/mL (≈ 0.691 µM) | 1.95 µg/mL (≈ 4.81 µM) | 14 | 11 | 7 | 0.16 µg/mL (≈ 0.395 µM) | 0.23 µg/mL (≈ 0.567 µM) | 7 | 11 | 0.3 µg/mL (≈ 0.74 µM) | 1.12 µg/mL (≈ 2.76 µM) | 3.17 µg/mL (≈ 7.82 µM) |  |  |  |  | 
3 | Cn1cc(C(=O)O)c(=O)c2cc(N)c(N3CCN(c4cnc5ccccc5n4)CC3)cc21 | 0.18 µg/mL (≈ 0.418 µM) | 0.19 µg/mL (≈ 0.441 µM) | 3.2 µg/mL (≈ 7.43 µM) | > 14 | 18 |  |  | 0.28 µg/mL (≈ 0.65 µM) | 17 | > 80 | 0.05 µg/mL (≈ 0.116 µM) |  | > 4 µg/mL |  |  |  |  | 
4 | CC(C)c1nc(CN(C)C(=O)N[C@H](C(=O)N[C@@H](Cc2ccccc2)C[C@H](O)[C@H](Cc2ccccc2)NC(=O)OCc2cncs2)C(C)C)cs1 |  |  |  |  |  |  |  |  |  |  |  |  |  | Active | Active |  |  | 
5 | Cn1cc(C(=O)O)c(=O)c2ccc(N3CCN(c4cnccn4)CC3)cc21 | 58.2 µg/mL (≈ 159 µM) | 16.4 µg/mL (≈ 44.7 µM) | > 125 µg/mL | > 2 | > 2 |  |  | 47.5 µg/mL (≈ 130 µM) | 8 | > 3 | 35 µg/mL (≈ 95.8 µM) |  | > 100 µg/mL |  |  |  |  | 
6 | Nc1cc2c(=O)c(C(=O)O)c[nH]c2cc1N1CCN(c2cccc(C(F)(F)F)c2)CC1 | 0.38 µg/mL (≈ 0.879 µM) | 0.46 µg/mL (≈ 1.06 µM) | 1.64 µg/mL (≈ 3.79 µM) |  | 4 |  |  |  | 4 |  |  |  |  |  |  |  |  | 
7 | CC(=O)c1cn(C)c2cc(N3CCN(c4ccccn4)CC3)c(N)cc2c1=O | > 125 µg/mL | > 125 µg/mL | > 125 µg/mL |  |  |  |  |  |  |  |  |  |  |  |  |  |  | 
8 | Cn1cc(C(=O)NCc2ccc(F)cc2F)c(=O)c2cc(N)c(N3CCN(c4ccccn4)CC3)cc21 | > 32.2 µg/mL | > 32.2 µg/mL | 32.2 µg/mL (≈ 63.9 µM) |  | < 1 |  |  |  | < 1 |  |  |  |  |  |  |  |  | 
9 | Cn1cc(C(=O)O)c(=O)c2ccc(N3CCN(c4nc5ccccc5s4)CC3)cc21 | 0.03 µg/mL (≈ 0.0713 µM) | 0.04 µg/mL (≈ 0.0951 µM) | 0.44 µg/mL (≈ 1.05 µM) | 104 | 14.7 | 4 | 0.15 µg/mL (≈ 0.357 µM) | 0.065 µg/mL (≈ 0.155 µM) | 5.5 | 281 | 0.024 µg/mL (≈ 0.0571 µM) | 0.65 µg/mL (≈ 1.55 µM) | 6.74 µg/mL (≈ 16 µM) |  |  | Active | Dose-dependent effect | Active
10 | Cn1cc(C(=O)O)c(=O)c2ccc(N3CCN(c4nccs4)CC3)cc21 | 10 µg/mL (≈ 27.1 µM) | 12.7 µg/mL (≈ 34.3 µM) | > 125 µg/mL | ≥ 12 | > 12 |  |  | 8 µg/mL (≈ 21.6 µM) | > 10 | ≥ 38 | 2.6 µg/mL (≈ 7.02 µM) |  | ≥ 100 µg/mL |  |  |  |  | 
11 | Cn1cc(C(=O)O)c(=O)c2cc(N)c(N3CCN(c4ccc5ccccc5n4)CC3)cc21 | 0.035 µg/mL (≈ 0.0815 µM) | 0.022 µg/mL (≈ 0.0512 µM) | 0.21 µg/mL (≈ 0.489 µM) | 55 | 6 |  |  | 0.075 µg/mL (≈ 0.175 µM) | 10 | 115 | 0.036 µg/mL (≈ 0.0838 µM) |  | 4.15 µg/mL (≈ 9.66 µM) |  |  |  |  | 
12 | Cc1cn([C@H]2C[C@H](N=[N+]=[N-])[C@@H](CO)O2)c(=O)[nH]c1=O |  |  |  |  |  |  |  |  |  |  |  |  |  | Active | Active |  |  | 
13 | Nc1cc2c(=O)c(C(=O)O)c[nH]c2cc1N1CCN(c2ccccn2)CC1 | 0.45 µg/mL (≈ 1.23 µM) | 0.16 µg/mL (≈ 0.438 µM) | 2.16 µg/mL (≈ 5.91 µM) | 53 | 5 | 13 | 0.094 µg/mL (≈ 0.257 µM) | 0.09 µg/mL (≈ 0.246 µM) | 14 | 93 | 0.051 µg/mL (≈ 0.14 µM) | 1.28 µg/mL (≈ 3.5 µM) | 4.75 µg/mL (≈ 13 µM) |  |  |  |  | 
14 | CCN(CCNc1cc2c(cc1N)c(=O)c(C(=O)O)cn2C)c1ccccn1 | > 16.9 µg/mL | > 16.9 µg/mL | 16.9 µg/mL (≈ 44.2 µM) |  |  |  |  |  |  |  |  |  |  |  |  |  |  | 
15 | Cn1ccc(=O)c2cc(N)c(N3CCN(c4nc5ccccc5o4)CC3)cc21 | > 72.1 µg/mL | > 72.1 µg/mL | 72.1 µg/mL (≈ 192 µM) |  | < 1 |  |  |  | < 1 |  |  |  |  |  |  |  |  | 
